Source: PubChem BioAssay AID248 (DTP/NCI, 2004)
“And” between values parts separate entries of the source, which are not always exact repeats. Equal values may be shown once. Toxic doses and inconclusive results are not listed. Rule as the data show it: active = T/C of 150% or more; inactive = T/C below 125%.

System: L1210 leukemia ip in BDF1 mice, survival T/C
Experiment: NCI In Vivo Anticancer Drug Screen. Data for tumor model L1210 Leukemia (intraperitoneal) in B6D2F1 (BDF1) mice
Conditions: endpoint: mean survival time, higher = longer survival
Procedure, shortened: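 Each compound was tested against a transplantable tumor grown in mice. The endpoint was survival, with treated animals benchmarked against vehicle controls as a simple ratio.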

[1] = dose: 100.0 mg/kg/injection, schedule: Q01DX001 (ip), vehicle: carboxymethylcellulose (CMC)
[2] = dose: 200.0 mg/kg/injection, schedule: Q01DX001 (ip), vehicle: carboxymethylcellulose (CMC)
[3] = dose: 400.0 mg/kg/injection, schedule: Q01DX001 (ip), vehicle: carboxymethylcellulose (CMC)
[4] = dose: 50.0 mg/kg/injection, schedule: Q01DX009 (ip), vehicle: saline with Tween-80
[5] = dose: 100.0 mg/kg/injection, schedule: Q01DX009 (ip), vehicle: saline with Tween-80
[6] = dose: 100.0 mg/kg/injection, schedule: Q04DX003 (ip), vehicle: Klucel (hydroxypropylcellulose) (HPC)
[7] = dose: 200.0 mg/kg/injection, schedule: Q04DX003 (ip), vehicle: Klucel (hydroxypropylcellulose) (HPC)

Measured: T/C

COC1(OC)C2C(Cl)=C(Cl)C1(Cl)C(Br)C2c1ccccc1 (stereo not given)
inactive: [1] 97 % of control | [2] 92 % of control | [3] 103 % of control

O=C(NCCCc1ccc(S(=O)(=O)F)cc1)Oc1ccc([N+](=O)[O-])cc1
inactive: dose: 25.0 mg/kg/injection, schedule: Q01DX009 (ip), vehicle: saline with Tween-80 102 % of control | [4] 100 % of control | [5] 93 % of control and 86 % of control

CN(c1ccccc1)c1cc(N)nc(N)n1
inactive: dose: 6.0 mg/kg/injection, schedule: Q01DX Z (ip), vehicle: methylcellulose (MC) 92 % of control

O=C1/C(=C/c2ccccn2)CCc2cc(Cl)ccc21
inactive: dose: 100.0 mg/kg/injection, schedule: Q04DX003 (ip), vehicle: carboxymethylcellulose (CMC) 93 % of control | dose: 200.0 mg/kg/injection, schedule: Q04DX003 (ip), vehicle: carboxymethylcellulose (CMC) 96 % of control | dose: 400.0 mg/kg/injection, schedule: Q04DX003 (ip), vehicle: carboxymethylcellulose (CMC) 96 % of control

CCOCC(=O)Oc1ccc(/C=N/NC(N)=S)nc1
inactive: dose: 100.0 mg/kg/injection, schedule: Q04DX002 (ip), vehicle: saline with Tween-80 116 % of control | dose: 200.0 mg/kg/injection, schedule: Q04DX002 (ip), vehicle: saline with Tween-80 113 % of control | dose: 400.0 mg/kg/injection, schedule: Q04DX002 (ip), vehicle: saline with Tween-80 116 % of control

CCOC(=O)c1cc(C(=O)OCC)c(C#N)c(=O)[nH]1
inactive: dose: 100.0 mg/kg/injection, schedule: Q01DX009 (ip), vehicle: Klucel (hydroxypropylcellulose) (HPC) 103 % of control | [6] 100 % of control | dose: 200.0 mg/kg/injection, schedule: Q01DX009 (ip), vehicle: Klucel (hydroxypropylcellulose) (HPC) 88 % of control | [7] 88 % of control | dose: 400.0 mg/kg/injection, schedule: Q01DX009 (ip), vehicle: Klucel (hydroxypropylcellulose) (HPC) 94 % of control | dose: 400.0 mg/kg/injection, schedule: Q04DX003 (ip), vehicle: Klucel (hydroxypropylcellulose) (HPC) 98 % of control

CC1=COC(C)(C(=O)O)CC1 (stereo not given)
inactive: dose: 55.0 mg/kg/injection, schedule: Q01DX Z (ip), vehicle: methylcellulose (MC) 100 % of control | dose: 83.0 mg/kg/injection, schedule: Q01DX Z (ip), vehicle: methylcellulose (MC) 86 % of control | dose: 125.0 mg/kg/injection, schedule: Q01DX Z (ip), vehicle: methylcellulose (MC) 102 % of control

c1ccc(C2C(c3ccccc3)N2C23CC4CC(CC(C4)C2)C3)cc1 (stereo not given)
inactive: [6] 88 % of control | [7] 94 % of control

COCC1=CC(=O)CCC1CC1OC1(C)C (stereo not given)
inactive: [4] 96 % of control | [5] 96 % of control | dose: 200.0 mg/kg/injection, schedule: Q01DX009 (ip), vehicle: saline with Tween-80 96 % of control

CCOC(=O)c1ccc2c(ccc[n+]2C)c1
inactive: dose: 75.0 mg/kg/injection, schedule: Q01DX001 (ip), vehicle: saline 97 % of control | dose: 75.0 mg/kg/injection, schedule: Q04DX003 (ip), vehicle: saline 107 % of control | dose: 150.0 mg/kg/injection, schedule: Q01DX001 (ip), vehicle: saline 97 % of control | dose: 150.0 mg/kg/injection, schedule: Q04DX003 (ip), vehicle: saline 105 % of control | dose: 300.0 mg/kg/injection, schedule: Q01DX001 (ip), vehicle: saline 95 % of control

Clc1cccc(C2ON2C2CCCCC2)c1 (stereo not given)
inactive: [1] 92 % of control | [2] 100 % of control | [3] 94 % of control
